The record followed here is article PMC7094215, “Synthesis and Evaluation of Antileishmanial and Cytotoxic Activity of Benzothiopyrane Derivatives” (Molecules, 2020).

Data set [1] deals with intracellular amastigotes of L. panamensis (MHOM/CO/87/UA140-EGFP strain). In words: In vitro antileishmanial activity on intracellular amastigotes (GFP, flow cytometry). The note with it: for EC50: intracellular amastigotes in U-937 cells, 72 h exposure, mean ± SD, Probit; for SI (Selectivity Index = LC50/EC50): LC50 U-937 / EC50 L. panamensis amastigotes. It counts as cell-based, Leishmania (V) panamensis. On the procedure: Antileishmanial activity of compounds was determined according to the ability of the compound to reduce the infection by L. panamensis parasites. For this, the antileishmanial activity was tested on intracellular amastigotes of L. panamensis transfected with the green fluorescent protein gene (MHOM/CO/87/UA140-EGFP strain). Briefly, U-937 human cells at a density of 3 × 10^5 cells/mL in RPMI 1640 and 0.1 μg/mL of PMA (phorbol-12-myristate-13-acetate) were dispensed on 24-wells microplate and then infected with stationary phase growing L. panamensis promastigotes in 15:1 parasites per cell ratio. Plates were incubated at 34 °C and 5% CO2 for 3 h, and then cells were washed twice with phosphate buffer solution (PBS) to eliminate not internalized parasites. Fresh RPMI-1640 was added into each well (1 mL), and plates were incubated again. After 24 h of infection, the RPMI-1640 medium was replaced by fresh culture medium containing each compound at four serial dilutions (50, 12.5, 3.125 and 0.78 μg/mL) and plates were then incubated at 37 °C and 5% CO2 during 72 h, then, cells were removed from the bottom plate with 100 µL of EDTA/trypsin (250 mg) solution. The cells were centrifuged at 1100 rpm during 10 min at 4 °C, the supernatant was discarded, and cells were washed with 1 mL of cold PBS and centrifuged at 1100 rpm for 10 min at 4 °C. Cells were washed two times employing PBS, as previously, and after the last wash, the supernatant was discarded, and cells were suspended in 500 μL of PBS.
Cells were analyzed by flow cytometry employing a flow cytometer (FC 500MPL, Cytomics, Beckman Coulter. Pasadena, CA, USA) reading at 488 nm (exciting) and 525 nm (emitting) over an argon laser and counting 10,000 events. Infected cells were determined according to the events for green fluorescence (parasites). All determinations for each compound and standard drug were carried out by triplicate, in two experiments. Infected cells exposed to control drug (amphotericin B) were used as the control for antileishmanial activity (positive control), while infected cells incubated in the absence of any compound or drug were used as another control for infection (negative control). Nonspecific fluorescence was corrected by subtracting the fluorescence of unstained cells. Determinations were done by triplicate in at least two independent experiments.
The antileishmanial activity was determined according to the reduction of the percentage of fluorescent parasites determined according to the median fluorescence intensity (MFI) obtained for each experimental condition by cytometry. The parasite values for each concentration of compound were calculated by Equation (3), where the % of parasites in control well, corresponds to 100% of parasites:(3) % Parasites=(MFI exposed parasites/MFI unexposed parasites)×100
Then, the inhibition percentage was calculated with Equation (4):(4) % Inhibitors of Parasites=100−(% Parasites)
Results of antileishmanial activities were expressed as the median effective concentrations (EC50) measured by Probit method.
In general terms: Flow cytometry measures light scatter and fluorescence of single cells or particles in a stream.

Data set [2] deals with human monocytes (U-937 ATCC CRL-1593.2). In words: Cytotoxic activity, MTT method. Format: cell-based. The note with it: 72 h. On the procedure: (§1) Cytotoxicity of the compounds was evaluated on human monocytes (U-937 ATCC CRL-1593.2) in an exponential growth phase and adjusted at 1 × 10^5 cells/mL in RPMI-1640 enriched with 10% fetal bovine serum (FBS). One hundred microliters of cell suspension were dispensed in each well of a 96-wells microplate, and then 100 μL of 200-50-12.5 and 3.125 μg/mL concentration of each compound or standard drug (amphotericin B) were added dissolved in PBS with 0.5% DMSO. Cell exposed to compounds or standard drugs were incubated 72 h at 37 °C and 5% of CO2. Cytotoxic activity of each compound was determined according to the effect on the cell viability by the MTT microenzymatic method in which 3-(4,5-dimethylthiazol-2-yl)-2,5-diphenyltetrazolium bromide is reduced to a purple formazan product by mitochondrial enzyme succinate dehydrogenase. Thus, 10 μL/well of MTT solution (5 mg/mL) was added to each well of exposed and unexposed cells, and plates were incubated at 37 °C, 5% CO2 during 3 h. The reaction was stopped by adding 100 μL/well of isopropanol with 50% and 10% of SDS (sodium dodecyl sulfate). The concentration of formazan was determined spectrophotometrically at 570 nm (Varioskan, Thermo, Waltham, MA, USA) and intensity of color (absorbance) was registered as O.D. Cells exposed to control drug (amphotericin B) were used as control for toxicity (positive control) while cell incubated in the absence of any compound or drug were used as control for viability (negative control). Non-specific absorbance was corrected by subtracting absorbance (O.D) of the blank. Determinations were done by triplicate in at least two independent experiments.
(§2) Cytotoxicity was determined according to viability and mortality percentages obtained for each experimental condition (synthesized compounds, amphotericin B, and culture medium). Results were expressed as the mean lethal concentrations (LC50), the concentration necessary to kill 50% of cells, calculated by the parametric method of linear regression that permits doses-response analysis (Probit analysis).
(§3) Initially, viability percentages were calculated by Equation (1), where the O.D of control well, corresponds to 100% of viability:(1) % Viability=(O.D. exposed cells/O.D. unexposed cells)×100
(§4) Then, the percentage of cell growth inhibition was calculated using Equation (2):(2) % Inhibition =100−(% Viability)
(§5) The toxicity was defined according to LC50 values, using the follow scale: Toxic; LC50 < 100 μM; moderately toxic; LC50 > 100 μM and < 200 μM and potentially nontoxic; LC50 > 200 μM.
On the technique in general: Tetrazolium assays rely on reduction of a dye to a coloured formazan, in cell work by metabolically active cells.

A short description of data set [3]: Cytotoxic activity, MTT method. It counts as cell-based. To be noted: human, LC50. How it is done: as §1, §2, §3, §4, §5
Where [4] appears, read: Leishmania panamensis, U-937, 72 h.

Where two headings read alike, the source gives them in different places. A value given as a limit tells only on which side of the number the result lay.

A word on the EC50: it is the concentration needed to bring the measured effect to its halfway point. High values mean a less potent agent, low ones a more potent agent.

The molecule “4-(2-Carbamoylhydrazineylidene)thiochromane-2-carboxylic acid [Compound 26c]” came in with an EC50 in data set [1] of over 189 µM. For the same molecule, the CC50 in data set [2] (U-937 cells, MTT, mean ± SD, Probit, read-out: LC50 (the source's name)) amounted to 1160 ± 340 µM.
`O=C1CC(C(=O)O)Sc2ccccc21` (stereo not drawn) [20a (-), 4-oxo-thiochroman-2-carboxylic acid]: in data set [1], the “SI (Selectivity Index = LC50/EC50)” value worked out at 0.6 and the EC50 was 53.5 ± 10.8 µM. In data set [2] (human), the CC50 came to 33 ± 1.5 µM.
On to `CCCCOC(=O)C1CC(=O)c2ccccc2S1` (stereo not drawn) [22b (+), butyl 4-oxothiochromane-2-carboxylates], for which, in data set [1], the “SI (Selectivity Index = LC50/EC50)” value is 0.2 and a half-maximal effect (EC50) was put at 368 ± 24.2 µM. In addition, in data set [2] (human), the CC50 stood at 74.9 ± 52.8 µM.
In the same order, the values of `CCCCOC(=O)C1CC(=O)c2ccccc2S1` (stereo not drawn) [22b (-), butyl 4-oxothiochromane-2-carboxylates] are 0.5, 53 ± 10.8 µM and 28.8 ± 4.5 µM.
The molecule `O=C(C1=Cc2ccccc2SC1c1ccccc1)c1ccccc1` (stereo not shown) [Compound 15a, Phenyl(2-phenyl-2H-thiochromen-3-yl)methanone] registered an EC50 in data set [1] (setting [4]) of 43.9 ± 11.6 µM. In addition, the CC50 at 72 h in data set [3] was over 609 µM.
For `O=C(C1=Cc2ccccc2SC1c1ccc(C(F)(F)F)cc1)c1ccc(Cl)cc1` (stereo not shown) [Compound 15b, (4-Chlorophenyl)(2-(4-(trifluoromethyl)phenyl)-2H-thiochromen-3-yl)methanone], in data set [1], the “SI (Selectivity Index = LC50/EC50)” value is listed as 2.6. The molecule further gave a concentration giving a half-maximal response (EC50) in data set [1] (setting [4]) of 37.9 ± 2.8 µM. This molecule also yielded a CC50 at 72 h in data set [3] of 97.2 ± 14.2 µM.
In the same order, the values of `O=C(C1=Cc2ccccc2SC1c1ccc([N+](=O)[O-])cc1)c1ccc(Cl)cc1` (stereo not shown) [Compound 15c, (4-Chlorophenyl)(2-(4-nitrophenyl)-2H-thiochromen-3-yl)methanone] are 4.0, 38.1 ± 11.3 µM and 151 ± 18.1 µM.
Taken in the same sequence, the figures for `O=C1CC(C(=O)O)Sc2ccc(F)cc21` (stereo not shown) [Compound 20b, 6-Fluoro-4-oxo-thiochromane-2-carboxylic acid] were 0.1, 3520 ± 3010 µM and 210 ± 78.7 µM.
In the same order, the values of `COc1ccc2c(c1)C(=O)CC(C(=O)O)S2` (stereo not shown) [Compound 20c, 6-Methoxy-4-oxo-thiochromane-2-carboxylic acid] are 0.2, 494 ± 324 µM and 76.3 ± 8.6 µM.
For the molecule `COc1ccc2c(c1)SC(C(=O)O)CC2=O` (stereo not shown) [Compound 20d, 7-Methoxy-4-oxo-thiochromane-2-carboxylic acid], the “SI (Selectivity Index = LC50/EC50)” value in data set [1] turned out to be 0.3. This molecule also had an EC50 in data set [1] (setting [4]) of 277 ± 101 µM. In data set [3], the CC50 at 72 h is 90.4 ± 16.4 µM.
For `CCOC(=O)C1CC(=O)c2ccccc2S1` (stereo not shown) [Compound 22a, Ethyl 4-oxo-thiochromane-2-carboxylate], in data set [1], the “SI (Selectivity Index = LC50/EC50)” value is given as under 3.1. Moreover, the EC50 in data set [1] (setting [4]) is over 68.5 µM. The same molecule returned a CC50 at 72 h in data set [3] of 211.1 ± 0.7 µM.
Taken in the same sequence, the figures for `CCCCOC(=O)C1CC(=O)c2ccccc2S1` (stereo not shown) [Compound 22b, Butyl 4-oxo-thiochromane-2-carboxylate] were under 1.2, over 189 µM and 231 ± 44.5 µM.
In the same order, the values of `CCCCCCOC(=O)C1CC(=O)c2ccccc2S1` (stereo not shown) [Compound 22c, Hexyl 4-oxo-thiochromane-2-carboxylate] are under 2.1, over 103 µM and 213 ± 47.9 µM.
With `CCCCCCCCCCOC(=O)C1CC(=O)c2ccccc2S1` (stereo not shown) [Compound 22d, Decyl 4-oxo-thiochromane-2-carboxylate], in data set [1], the “SI (Selectivity Index = LC50/EC50)” value is recorded as under 1.0. Further, the EC50 in data set [1] (setting [4]) was over 144 µM. Moreover, the CC50 at 72 h in data set [3] came out at 140 ± 20.7 µM.
Taken in the same sequence, the figures for `CCCCCCNC(=O)C1CC(=O)c2ccccc2S1` (stereo not shown) [Compound 24a, N-hexyl-4-oxo-thiochromane-2-carboxamide] were 0.7, 216 ± 2.5 µM and 157 ± 9.7 µM.
Taken in the same sequence, the figures for `CCCCCCCCCCCCNC(=O)C1CC(=O)c2ccccc2S1` (stereo not shown) [Compound 24b, N-dodecyl-4-oxo-thiochromane-2-carboxamide] were under 1.8, over 80 µM and 148 ± 45.4 µM.
For `Cc1ccccc1NC(=O)C1CC(=O)c2ccccc2S1` (stereo not shown) [Compound 24c, 4-Oxo-N-(o-tolyl)thiochromane-2-carboxamide], the “SI (Selectivity Index = LC50/EC50)” value in data set [1] was under 1.2. Besides, the EC50 in data set [1] (setting [4]) was over 101 µM. The molecule further had a CC50 at 72 h in data set [3] of 119 ± 10.9 µM.
In the same order, the values of `CCOC(=O)C1CC(=NNC(=O)c2ccccc2)c2ccccc2S1` (stereo not shown) [Compound 26a, Ethyl 4-(2-benzoylhydrazineylidene)thiochromane-2-carboxylate] are 0.5, 28.5 ± 6.3 µM and 15.4 ± 0.2 µM.
Taken in the same sequence, the figures for `CCOC(=O)C1CC(=NNC(=O)c2ccncc2)c2ccccc2S1` (stereo not shown) [Compound 26b, Ethyl 4-(2-isonicotinoylhydrazineylidene)thiochromane-2-carboxylate] were 0.3, 53.2 ± 41 µM and 15.2 ± 0.2 µM.
